Reference: publication doi:10.1101/2020.07.24.219071v1 (biorxiv, 2020)

Columns and labels:
Assay in all cases: MicroScale Thermophoresis
[1] = molecular target: Hematopoietic prostaglandin D synthase (HPGDS) (Homo sapiens, UniProt O60760); format: binding
[2] = molecular target: T1, Fatty acid-binding protein 4 (FABP4) (Homo sapiens, UniProt P15090)
T1 sequence (P15090 2-132): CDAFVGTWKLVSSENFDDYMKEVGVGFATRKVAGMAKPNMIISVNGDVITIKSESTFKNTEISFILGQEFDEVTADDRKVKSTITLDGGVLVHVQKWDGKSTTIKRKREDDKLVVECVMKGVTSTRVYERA

[3] = molecular target: Glutamate receptor 2 (GRIA2) (Homo sapiens, UniProt P42262); format: binding
Menin = molecular target: T2, Menin (Homo sapiens, UniProt O00255); format: binding
T2 sequence (O00255 1-610): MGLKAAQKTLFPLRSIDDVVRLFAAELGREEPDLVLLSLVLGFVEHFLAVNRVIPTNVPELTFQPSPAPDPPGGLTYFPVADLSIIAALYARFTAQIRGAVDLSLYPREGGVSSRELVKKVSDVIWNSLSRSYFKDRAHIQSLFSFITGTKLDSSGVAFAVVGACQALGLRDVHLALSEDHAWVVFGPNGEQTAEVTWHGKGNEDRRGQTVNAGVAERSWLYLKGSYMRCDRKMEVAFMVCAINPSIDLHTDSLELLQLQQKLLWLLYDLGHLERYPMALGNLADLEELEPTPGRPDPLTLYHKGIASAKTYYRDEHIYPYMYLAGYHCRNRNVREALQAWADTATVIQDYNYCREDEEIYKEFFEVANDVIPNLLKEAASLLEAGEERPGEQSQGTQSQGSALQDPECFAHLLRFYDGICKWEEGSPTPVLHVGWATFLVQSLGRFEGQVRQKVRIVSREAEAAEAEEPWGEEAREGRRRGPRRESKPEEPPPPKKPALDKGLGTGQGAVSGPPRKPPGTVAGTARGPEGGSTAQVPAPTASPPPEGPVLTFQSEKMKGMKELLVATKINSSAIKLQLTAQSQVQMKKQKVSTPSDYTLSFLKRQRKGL

[4] = molecular target: Nicotinamide/nicotinic acid mononucleotide adenylyltransferase 1 (NMNAT1) (Homo sapiens, UniProt Q9HAN9); format: binding
Sequence of Nicotinamide/nicotinic acid mononucleotide adenylyltransferase 1 (NMNAT1) (Q9HAN9 whole entry): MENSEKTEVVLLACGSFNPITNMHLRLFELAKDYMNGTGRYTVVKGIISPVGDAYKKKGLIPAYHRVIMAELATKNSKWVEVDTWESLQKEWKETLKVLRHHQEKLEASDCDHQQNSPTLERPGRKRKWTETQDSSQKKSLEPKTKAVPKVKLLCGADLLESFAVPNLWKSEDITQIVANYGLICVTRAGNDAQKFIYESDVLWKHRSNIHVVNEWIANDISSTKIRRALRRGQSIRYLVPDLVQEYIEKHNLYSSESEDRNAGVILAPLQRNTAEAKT

Sequence of Glutamate receptor 2 (GRIA2) (P42262 25-543 limits assumed): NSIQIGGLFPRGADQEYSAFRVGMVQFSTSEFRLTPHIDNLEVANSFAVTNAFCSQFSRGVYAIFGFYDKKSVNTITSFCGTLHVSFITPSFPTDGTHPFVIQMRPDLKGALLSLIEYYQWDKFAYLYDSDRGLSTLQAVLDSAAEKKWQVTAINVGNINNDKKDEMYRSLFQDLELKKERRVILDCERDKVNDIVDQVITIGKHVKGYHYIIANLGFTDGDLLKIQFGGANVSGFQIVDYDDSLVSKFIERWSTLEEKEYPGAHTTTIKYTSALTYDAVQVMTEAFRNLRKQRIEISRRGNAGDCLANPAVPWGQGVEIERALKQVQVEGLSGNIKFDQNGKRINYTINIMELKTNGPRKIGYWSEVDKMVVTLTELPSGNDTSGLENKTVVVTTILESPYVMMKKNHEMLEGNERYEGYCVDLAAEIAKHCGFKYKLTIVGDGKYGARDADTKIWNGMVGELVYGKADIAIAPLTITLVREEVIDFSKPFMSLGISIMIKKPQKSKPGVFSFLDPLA
Sequence of Hematopoietic prostaglandin D synthase (HPGDS) (O60760 whole entry): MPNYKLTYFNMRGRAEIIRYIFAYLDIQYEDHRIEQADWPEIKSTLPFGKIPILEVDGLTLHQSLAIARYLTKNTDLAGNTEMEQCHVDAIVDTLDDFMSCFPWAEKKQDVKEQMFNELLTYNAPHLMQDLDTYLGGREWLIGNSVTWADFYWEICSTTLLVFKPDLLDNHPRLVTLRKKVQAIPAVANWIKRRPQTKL

Kd [1]: 30.9 ± 4.54 µM
Kd [2]: > 500 µM
Kd [3]: > 500 µM
Kd (Menin): > 500 µM
Kd [4]: > 500 µM
Structure (SMILES): C[S+]([O-])c1ccc(-c2nc(-c3ccncc3)c(-c3ccc(F)cc3)[nH]2)cc1 (centres unmarked) [SB203580]
